Common to all, as to assay type: cell-based
Data set [1] has as its system IL-6 production in A549 cells (human lung epithelial cell line). The experiment in a line: Inhibitory activity on IL-6 production (TNF-α-stimulated A549 cells, ELISA). Particulars: TNF-α stimulation, incubation for 24 hours, IL-6 in supernatant by ELISA. On the procedure: (§1) (1) Assaying Inhibitory Activity on IL-6 Production and Cellular Toxicity
(§2) 1.5×10^4 of A549 cells (human lung epithelial cell line) were suspended in dalbeco-modified eagle medium (DMEM) containing 0.5% fetus bovine serum (abbreviated as FBS)˜(100 μl) and incubated in 96 well-microplate over day and night. The test compound dissolved in various kinds of solvents at various concentrations (20 μl) and Tumor Necrosis Factor-α (TNF-α (Genzyme Co, Cat. No. TNF-H)) dissolved in DMEM at the concentration of 12.5 ng/ml (80 μl) were added thereto. After incubation for 24 hours, the supernatant (200 μl) was recovered to assay the quantity of IL-6 using Enzyme Linked Immuno […] Assay (ELISA) Method (R&D Systems Co., Cat. No. D6050), to calculate inhibitory activity of the test compound and determine 50% inhibitory concentration (IC50). To the cells from which the supernatant was removed, a solution of brom 3-(4,5-dimethyl-2-thiazolyl)-2,5-diphenyl-2H-tetrazolinium (abbreviated as MTT (Dojin Chemical Laboratory, Cat. No. 345-01821)) dissolved in DMEM containing 10% FBS at the concentration of 0.5 mg/ml (100 μl) was added and incubated for 3 hours. After removing MTT solution, methanol (100 μl) was added thereto. After lyse the cells, the intensity of absorbance on 570 nm as a control of 690 nm was determined to assay cellular toxicity of the test compound.

Data set [2] relates to A549 cells (human lung epithelial cell line). The experiment in a line: Cellular toxicity in A549 cells (MTT). The following applies: at 10 μM. On the procedure: as §1, §2
Data set [3] has as its system IL-12 production in peripheral monocyte prepared from healthy human blood. The experiment in a line: Inhibitory activity on IL-12 production (IFN-γ/LPS-stimulated peripheral monocyte, ELISA). Particulars: IFN-γ 24 hours then LPS 20 hours, IL-12 in supernatant by ELISA. The protocol: (§3) (2) Assaying Inhibitory Activity on IL-12 Production and Cellular Toxicity
(§4) 2.0×10^5 of peripheral monocyte prepared from healthy human blood by Ficole gravity centrifugation method (Pharmacia Biotech Co, Cat. No. 17-1440-02) were suspended in RPMI1640 medium containing 10% FBS (170 μl). The test compound dissolved in various kinds of solvents at the various concentrations (10 μl) and 6000 units/ml of Interferon-γ (IFN-γ (Serotec Co, Cat. No. PHP050)) (10 μl) dissolved in RPMI1640 medium containing 10% FBS. After incubation for 24 hours in 96 well-microplate, lipopolysaccharide (6 μg/ml) dissolved in RPMI1640 medium containing 10% FBS (LPS (Difco Co., Cat. No. 3120-25-0)) (10 μl) was added thereto. After incubation for 20 hours, the supernatant (150 μl) was recovered to assay the quantity of IL-12 using ELISA Method (R&D Systems Co, Cat. No. D1200), calculate for inhibitory activity of the test compound and determine 50% inhibitory concentration (IC50) (see J. Exp. Med., 183, 147 (1996)). To the cells from which the supernatant (150 μl) was removed, a solution of MTT dissolved in RPMI1640 medium containing 10% FBS at 1 mg/ml (50 μl) was added and incubated for 3 hours. 2-Propanol containing 0.04N HCl (100 μl) was added thereto. After lyse the cells, the intensity of absorbance on 570 nm as a control of 690 nm was determined to assay cellular toxicity of the test compound.
For orientation: An ELISA detects its analyte on a solid surface through an enzyme-linked reagent.

In data set [4] the test system is peripheral monocyte prepared from healthy human blood. The experiment in a line: Cellular toxicity in peripheral monocyte (MTT). Particulars: at 1 μM. The protocol: as §3, §4

The results in this text go back to patent US6420391B1, “Fused thiophone derivatives and drugs containing the same as the active ingredient” (Ono Pharmaceutical Co., Ltd., priority 1998, dated 2002).

Counter-ions that a name gives are not always drawn.

The term IC50 denotes the concentration at which inhibition is half-maximal. As to `O=S1(=O)CC(S(=O)(=O)c2ccccc2)c2c(OCc3cccnc3)cccc21` (stereo not shown) [Example 20(4) free compound, 4-(Pyridin-3-ylmethyl) oxy-3-phenylsulfonyl-2,3-dihydro-1,1-dioxidebenzo[b]thiophene], the half-maximal inhibitory concentration (IC50) in data set [1] is 4.4 µM. In addition, the cellular toxicity entry in data set [2] is reported as “no cellular toxicity”.
In data set [3], `O=S1(=O)CC(S(=O)(=O)c2ccccc2)c2c(OCc3cccnc3)cccc21` (stereo not shown) [Example 20(4) hydrochloride, 4-(Pyridin-3-ylmethyl) oxy-3-phenylsulfonyl-2,3-dihydro-1,1-dioxidebenzo[b]thiophene] showed an IC50 of 110 nM. Also, the cellular toxicity result in data set [4] is “no cellular toxicity”.
